Source: patent US9133231B2, “Compounds for treating bacterial infections” (Yissum Research Development Company of the Hebrew …, priority 2010, dated 2015)

How the values were obtained:
Type in all cases: cell-based
B. subtilis [1] = assay: Bacterial survival in CH medium (CFU after 24 hours of growth)
Experimental: Bacteria were grown in CH medium and samples were taken and plated on LB plates after 24 hours of growth. The plates were incubated at 37° C. for 15 hours. Colony forming units (CFU) were counted and compared to the untreated culture.
(§1) Cytotoxicity of compound A2 on eukaryotic (A431) and prokaryotic cells (B. Subtilis) was determined by using the methylthiazolyldiphenyl-tetrazolium bromide (MTT) assay. Bacteria were grown in CH medium and samples were taken and plated on LB plates after 24 hours of growth. The plates were incubated at 37° C. for 15 hours. Colony forming units (CFU) were counted and compared to the untreated culture. Viable bacterial cells are counted as CFU/mL: colony forming units per milliliter. Each CFU is equivalent to viable cell.

B. subtilis [2] = assay: Mature spore formation after induced sporulation (heat shock, CFU count)
Experimental: Cells were grown to an OD600 of 0.5. They were then washed with synthetic medium on a membrane filter and suspended in synthetic medium lacking amino acids in order to induce them to sporulate in the presence and the absence of inhibitors. Sporulation was monitored by fluorescence microscopy.
In order to further evaluate the effect of compounds A2 on sporulation, wild type bacteria were induced to sporulate in the presence of different concentrations (from 200 to 1.8 mM) of compound A2 and the process was monitored using fluorescence microscopy. With the aim of learning about the fate of the spores formed in the previously described cultures, an aliquot from the cell culture was taken and subjected to heat treatment (heat shock). The treatment included exposure of the cultures to 80° C. for 15 minutes and further plating on LB plates. After incubating the plates for 15 hours at 37° C., the colony forming units (CFUs) were quantified and the percent of mature spore formation was calculated (FIG. 2B-C).
The influence of the timing of addition of A2 was evaluated. Bacteria were induced to sporulate and A2 (1.8 mM) was added to the cultures every two hours (at T=0, T=2, T=4 and T=6). After growing overnight the cultures were heated and plated on LB plates.

B. subtilis [3] = assay: Growth and survival of B. subtilis growing in LB medium (CFU); details: 1.8 mM added at OD600 of 0.2, LB medium, 37° C.; FIG. 3
Experimental: The effect of A2 on growth and survival of B. subtilis growing in LB medium was then evaluated. Bacteria were grown overnight at 23° C. and diluted to an OD600 of 0.05. Subsequently, bacteria were further grown at 37° C. and A2 (1.8 mM) was added at an OD600 of 0.2. Bacterial growth was then continuously monitored by measuring the turbidity of the medium at 600 nm (OD600). Samples were taken and plated on LB plates. The plates were incubated at 37° C. for 15 hours. Colony forming units (CFU) were counted and compared to the untreated culture.

[4] = system: A431 Epidermoid carcinoma cells; assay: MTT cytotoxicity assay on A431 cells; details: 72 hours incubation, up to 10 different concentrations, FIG. 8
Experimental: as §1
In a standard procedure, the cell line (A431: epidermoid carcinoma) was incubated for 24 hours in 37° C. and 5% CO2. Subsequently, compound A2 was added to the wells in up to 10 different concentrations. Subsequent to incubation of cells with A2 for an additional 72 hours, the MTT reagent was added.

Q: Which “cytotoxicity to B. Subtilis cells (prokaryotic)” value (B. subtilis [1]; CFU/mL after 24 hours of growth in CH medium, FIG. 8) does the source give for `CC(C)C(=O)Nc1nc2c(ncn2[C@H]2CC(OC(=O)NCC(=O)NCC(=O)O)[C@@H](COC(=O)NCC(=O)NCC(=O)O)O2)c(=O)[nH]1` (stereo partly shown) [Compound A2] here?
A: The value was “completely cytotoxic”.

Q: What about the “CFU/mL of the treated cultures” value (B. subtilis [1]; CH medium, after 24 hours of growth, increasing concentrations, FIG. 6) of the same compound?
A: Its value is “decreases in a dose dependent fashion”.

Q: What about the “reduction of the formation of mature spores” value (B. subtilis [2]; 0.22 mM (lowest tested concentration), heat shock 80° C. 15 minutes, CFU, FIG. 2B-C) of the same compound?
A: Its value is “about 70%”.

Q: What about the inhibition at 1800 µM (B. subtilis [2]; Bacillus subtilis, 1.8 mM added at T=0, T=2, T=4 or T=6 after inducing sporulation, in every case, FIG. 7, read-out: inhibition of the formation of mature spores) of the same compound?
A: Its inhibition at 1800 µM is > 80%.

Q: And the inhibition of sporulation (B. subtilis [2]; rest of the tested concentrations (above 0.22 mM, up to 1.8 mM), FIG. 2B-C)?
A: The inhibition of sporulation was 100%.

Q: And the “number of CFUs compared to the untreated culture” value (B. subtilis [3])?
A: The value was “substantially reduced the number of CFUs”.

Q: What about the “cytotoxicity to A431 cells (eukaryotic)” value [4] of the same compound?
A: Its value is “not to A431 cells”.
